Laboratory results published in PMC7318243, “Computationally Empowered Workflow Identifies Novel Covalent Allosteric Binders for KRAS^G12C” (Chemmedchem, 2020).

How the values were obtained:
KRAS^G12C = target: T1, KRAS^G12C (Homo sapiens, UniProt P01116, C118S/C51S/C80L/G12C); assay: Determination of kinact and KI by LC-MS occupancy over time; format: binding; conditions: for k inact (maximum potential rate of KRAS^G12C inactivation) / Ki: 10 µM KRAS^G12C, 10-100 µM inhibitor, 0-180 min; for Ki: read-out: K I (binding constant of the reversible binding event)
T1 construct: made in house
T1 sequence (P01116 1-169 isoform P01116-2 G12C/C51S/C80L/C118S): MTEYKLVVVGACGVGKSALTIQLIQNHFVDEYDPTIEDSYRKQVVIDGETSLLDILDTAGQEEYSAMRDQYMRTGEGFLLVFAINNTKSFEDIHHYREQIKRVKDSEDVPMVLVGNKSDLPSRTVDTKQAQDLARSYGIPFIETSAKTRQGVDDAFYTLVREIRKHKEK
Description: (§1) 3.4 Covalent binding assay by mass spectrometry
The percentage of covalent adduct formation at KRAS G12C was determined by intact mass determination. To this end, 25 µM recombinant KRAS mutant (G12C , C51S, C80L, C118S) was incubated with 25 µM compound (1% v/v DMSO final concentration) in 50 mM Tris, pH 8.0, 50 mM NaCl at room temperature for 2 h. Reaction mixture (20 µL) was acidified by addi tion of 4% v/v TFA (4 µL). LC-MS analysis was performed using a Waters SYNAPT G2 -S quadrupole time -of-flight mass spectrometer connected to a Waters nanoA CQUITY UPLC system. Samples were loaded onto a 2.1 × 5 mm MassPrep C4 guard column (Waters) and desalted with a short gradient (3 min) of increasing concentration of acetonitrile at a flow rate of 100 µL/min. Spectra were analyzed by using MassLynx v4.1 software and deconvoluted with the MaxEnt1 algorithm. Percent conversion was determined by the ratio of signal intensities of […] and KRASG12C + inhibitor. […]
3.6 Determination of k inact and KI
The percentage of covalent adduct formation at KRASG12C was determined for compounds 1, 2 and 13 by intact mass determination. To this end, 25 µM of the same recombinant KRAS mutant as for the covalent binding assay (G12C, C51S, C80L, C118S) were incubated with 25 µM of compound (1% v/v final DMSO concentration) in 50 mM Tris, pH8, 50 mM NaCl at room temperature for 2 h. The reaction was acidified by adding 4 µL of 4% v/v TFA to 20 µL reaction […]
(§2) Liquid chromatography-mass spectrometry (LC-MS) analysis was performed using a Waters SYNAPT G2-S quadrupole time-of-flight mass spectrometer connected to a Waters nanoAcquity UPLC system. Samples were loaded on a 2.1 x 5 mm mass prep C4 guard column (Waters) and desalted with a short grad ient (3 min) of increasing concentrations of acetonitrile at a flow rate of 100 µL/min. Spectra were analyzed by using MassLynx v4.1 software and deconvoluted with the MaxEnt1 algorithm. Percent of conversion was determined by the ratio of signal intensiti es of apo-KRAS and KRAS + inhibitor.
The kinact / KI ratio was determined by measuring the total occupancy (% conversion) over time at different inhibitor concentrations. In detail, 10 µM KRASG12C were incubated in the same reaction buffer as above with 10 µM, 25 µM, 50 µM or 100 µM of inhibitor at different reaction times (0, 2, 20, 60 and 180 min), the reaction was quenched by adding 2 µL of 4% v/v TFA to 10 µL reaction volume and subsequently measured by LC -MS as described above. The observed occupancy percentage over time at a given inhibitor concentration was fit to the following equation using […]
% conversion = vi [1 − exp(−k ∗ t)]
The obtained kobs values were then plotted as a function of inhibitor concentration and fit to the […]
to yield the kinact and KI.[26]

active RAS = assay: Cellular assay for RAS activation (G-LISA); format: cell-based; conditions: 24 h treatment; read-out: Cellular IC50 (inhibition of active RAS formation)
Description: SOS1CAT. All steps of the assay were performed at 20 °C. A volume of 2.5 µL of the KRASG12C working solution was added to all wells of the test plate using a Multidrop dispenser (Thermo LabSystems). After 180 min, 2.5 µL of the SOS1CAT working solution was added to all wells, except for the inhibitor control solution wells. After 30 min incubation, HTRF was measured.
In the KRASWT activation by SOS1cat assay, human SOS1CAT mediated loading of GST-KRASWT– GDP was quantified with a fluorescent GTP analogue. The assay was performed as described above for the KRASG12C activation. GST-KRASG12C was replaced by GST-KRASWT, used at a final […]
as §1
The percentage of covalent adduct formation at KRAS G12C was determined by intact mass determination. To this end, 25 µM recombinant KRAS mutant (G12C , C51S, C80L, C118S) was incubated with 25 µM compound (1% v/v DMSO final concentration) in 50 mM Tris, pH 8.0, 50 mM NaCl at room temperature for 2 h. Reaction mixture (20 µL) was acidified by addi tion of 4% v/v TFA (4 µL). […] Spectra were analyzed by using MassLynx v4.1 software and deconvoluted with the MaxEnt1 algorithm. Percent conversion was determined by the ratio of signal intensities of […] and KRASG12C + inhibitor. […]
Using the G-LISA Kit (Cytoskeleton BK131, RAS Activation Assay), 50000 cells are seeded in a 96 well plate for 72 h at 37 °C (10% FBS, DMEM/Ham's F-12, 2 mM L-Glutamine). […] Finally, the content of active R AS is measured by detecting the absorbance at 490 nm. […]
The percentage of covalent adduct formation at KRASG12C was determined for compounds 1, 2 and 13 by intact mass determination. […]
as §2, with “Samples were loaded on a 2.1 x 5 mm mass prep C4 guard column (Waters) and desalted with a short grad ient (3 min) of increasing concentrations of acetonitrile at a flow rate of 100 µL/min.” left out

Row | SMILES | k inact/K I (KRAS^G12C) | k inact (maximum potential rate of KRAS^G12C inactivation) (KRAS^G12C) | Ki (KRAS^G12C) | IC50 (active RAS)
1 | C=CC(=O)N1CCC(c2cc3ncc(-c4c(O)cccc4F)cc3c(=O)[nH]2)C1 (stereo not drawn) [Compound 1, 3-(2-Fluoro-6-hydroxyphenyl)-7-[1-(prop-2-enoyl)pyrrolidin-3-yl]-1,6-naphthyridin-5(6H)-one] | 26.72 M⁻¹ s⁻¹ | 0.00105 s⁻¹ | 39.3 µM | > 30 µM
2 | C=CC(=O)N1CCC(c2cc3cnc(-c4c(O)cccc4F)cc3c(=O)[nH]2)C1 (stereo not drawn) [Compound 13, 7-(2-Fluoro-6-hydroxyphenyl)-3-[1-(prop-2-enoyl)pyrrolidin-3-yl]-2,6-naphthyridin-1(2H)-one] | 49.38 M⁻¹ s⁻¹ | 0.00159 s⁻¹ | 32.2 µM | 22 µM
3 | C=CC(=O)N1CCC(c2cc3ccc(-c4c(O)cccc4F)cc3c(=O)[nH]2)C1 (stereo not drawn) [Compound 2, 7-(2-Fluoro-6-hydroxyphenyl)-3-[1-(prop-2-enoyl)pyrrolidin-3-yl]isoquinolin-1(2H)-one] | 55.05 M⁻¹ s⁻¹ | 0.00024 s⁻¹ | 4.4 µM | > 30 µM
